In ChEMBL document CHEMBL1201862, “PubChem BioAssay data set” (2004):
“And” between values parts separate entries of the source, which are not always exact repeats. Equal entries are not always repeated.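 Cultured in 96-well plates, cells were exposed to test compound for 48 hours across five concentrations. GI50 = concentration required for 50% inhibition of growth.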 The source made the active and inactive calls. No stated cut-off is given here; in the data, active = GI50 up to about 1.1 µM and inactive = higher.

Experiments:
Experiment in all cases: growth of human tumour cells (NCI), 48 h
HL-60 = system: HL-60
NCI-H522 = system: NCI-H522
SF-295 = system: SF-295
OVCAR-5 = system: OVCAR-5
UO-31 = system: UO-31
SK-MEL-28 = system: SK-MEL-28
OVCAR-4 = system: OVCAR-4
NCI-H460 = system: NCI-H460
SNB-19 = system: SNB-19
RPMI-8226 = system: RPMI-8226
K562 = system: K562
MCF7 = system: MCF7
A549 = system: A549
MDA-MB-231 = system: MDA-MB-231
786-0 = system: 786-0
OVCAR-3 = system: OVCAR-3
NCI/ADR-RES = system: NCI/ADR-RES
MDA-N = system: MDA-N
HT-29 = system: HT-29
HCC 2998 = system: HCC 2998

SMILES | GI50 (HL-60) | GI50 (NCI-H522) | GI50 (SF-295) | GI50 (OVCAR-5) | GI50 (UO-31) | GI50 (SK-MEL-28) | GI50 (OVCAR-4) | GI50 (NCI-H460) | GI50 (SNB-19) | GI50 (RPMI-8226) | GI50 (K562) | GI50 (MCF7) | GI50 (A549) | GI50 (MDA-MB-231) | GI50 (786-0) | GI50 (OVCAR-3) | GI50 (NCI/ADR-RES) | GI50 (MDA-N) | GI50 (HT-29) | GI50 (HCC 2998)
O=C(O)CSc1ccn(Cc2ccccc2)c1 | > 100 µM (inactive) | > 100 µM (inactive) | > 100 µM (inactive) | > 100 µM (inactive) | > 100 µM (inactive) | > 100 µM (inactive) | > 100 µM (inactive) | > 100 µM (inactive) | > 100 µM (inactive) | > 100 µM (inactive) | > 100 µM (inactive) | > 100 µM (inactive) | > 100 µM (inactive) | > 100 µM (inactive) | > 100 µM (inactive) | > 100 µM (inactive) | > 100 µM (inactive) | > 100 µM (inactive) | > 100 µM (inactive) | –
O=C(NNC(=O)c1ccccc1O)c1ccco1 | 28.9 µM (inactive) | 57.3 µM (inactive) | > 100 µM (inactive) | > 100 µM (inactive) | > 100 µM (inactive) | > 100 µM (inactive) | > 100 µM (inactive) | 45.4 µM (inactive) | > 100 µM (inactive) | 84.5 µM (inactive) | > 100 µM (inactive) | > 100 µM (inactive) | > 100 µM (inactive) | 60.5 µM (inactive) | > 100 µM (inactive) | 57.4 µM (inactive) | 55.7 µM (inactive) | > 100 µM (inactive) | 51.5 µM (inactive) | –
Clc1ccc(Nc2ncco2)cc1Cl | – | > 10 µM (inactive) | > 10 µM (inactive) | > 10 µM (inactive) | > 10 µM (inactive) | > 10 µM (inactive) | > 10 µM (inactive) | > 10 µM (inactive) | > 10 µM (inactive) | – | > 10 µM (inactive) | > 10 µM (inactive) | > 10 µM (inactive) | > 10 µM (inactive) | > 10 µM (inactive) | > 10 µM (inactive) | > 10 µM (inactive) | > 10 µM (inactive) | > 10 µM (inactive) | > 10 µM (inactive)
CC(C)C(Nc1ncnc2nc[nH]c12)C(=O)O (stereo not given) | > 100 µM (inactive) | > 100 µM (inactive) | > 100 µM (inactive) | > 100 µM (inactive) | > 100 µM (inactive) | > 100 µM (inactive) | > 100 µM (inactive) | > 100 µM (inactive) | > 100 µM (inactive) | > 100 µM (inactive) | > 100 µM (inactive) | > 100 µM (inactive) | > 100 µM (inactive) | > 100 µM (inactive) | > 100 µM (inactive) | > 100 µM (inactive) | > 100 µM (inactive) | > 100 µM (inactive) | > 100 µM (inactive) | –
O=c1[nH]c(=O)n(C2OC(CO)C(O)C2O)c2nc(-c3ccc(-c4ccccc4)cc3)cnc12 (stereo not given) | – | > 100 µM (inactive) | > 100 µM (inactive) | > 100 µM (inactive) | > 100 µM (inactive) | – | > 100 µM (inactive) | > 100 µM (inactive) | > 100 µM (inactive) | > 100 µM (inactive) | > 100 µM (inactive) | > 100 µM (inactive) | > 100 µM (inactive) | > 100 µM (inactive) | > 100 µM (inactive) | – | > 100 µM (inactive) | > 100 µM (inactive) | > 100 µM (inactive) | > 100 µM (inactive)
CCNC(=O)CCC(C)[C@H]1CCC2C3C(C[C@H](OC(C)=O)[C@@]21C)[C@@]1(C)CCC2(C[C@H]1C[C@H]3OC(C)=O)OOC1(CCC(C)CC1)OO2 (stereo not given in full) | 1.49 µM (inactive) and 1.97 µM (inactive) | 1.47 µM (inactive) and 1.22 µM (inactive) | 3.82 µM (inactive) and 2 µM (inactive) | 2.7 µM (inactive) and 1.82 µM (inactive) | 1.02 µM (active) and 1.35 µM (inactive) | 2.9 µM (inactive) and 3.47 µM (inactive) | 1.24 µM (inactive) and 1.58 µM (inactive) | 2.39 µM (inactive) and 1.75 µM (inactive) | 6.38 µM (inactive) and 4.21 µM (inactive) | – | 3.8 µM (inactive) | 2.56 µM (inactive) and 2.7 µM (inactive) | 1.5 µM (inactive) and 1.49 µM (inactive) | 2.1 µM (inactive) | 2.38 µM (inactive) and 1.58 µM (inactive) | 1.55 µM (inactive) and 1.59 µM (inactive) | 3.31 µM (inactive) and 1.73 µM (inactive) | 1.88 µM (inactive) and 2.65 µM (inactive) | – | 1.75 µM (inactive) and 3.1 µM (inactive)
Cc1c2c(n(CCc3ccccc3)c1C)NN=C(C#N)S2(=O)=O | – | 71.1 µM (inactive) | – | > 100 µM (inactive) | > 100 µM (inactive) | > 100 µM (inactive) | > 100 µM (inactive) | > 100 µM (inactive) | > 100 µM (inactive) | > 100 µM (inactive) | > 100 µM (inactive) | > 100 µM (inactive) | > 100 µM (inactive) | > 100 µM (inactive) | > 100 µM (inactive) | > 100 µM (inactive) | > 100 µM (inactive) | > 100 µM (inactive) | > 100 µM (inactive) | > 100 µM (inactive)
COC(CNC(=O)C(C)NC(=O)CCc1ccccc1)OC (stereo not given) | > 100 µM (inactive) | > 100 µM (inactive) | > 100 µM (inactive) | > 100 µM (inactive) | > 100 µM (inactive) | > 100 µM (inactive) | > 100 µM (inactive) | > 100 µM (inactive) | > 100 µM (inactive) | > 100 µM (inactive) | > 100 µM (inactive) | > 100 µM (inactive) | > 100 µM (inactive) | > 100 µM (inactive) | > 100 µM (inactive) | – | > 100 µM (inactive) | > 100 µM (inactive) | > 100 µM (inactive) | –
CC(=O)c1nc(C#N)c(N)o1 | – | > 100 µM (inactive) | > 100 µM (inactive) | > 100 µM (inactive) | > 100 µM (inactive) | > 100 µM (inactive) | > 100 µM (inactive) | > 100 µM (inactive) | > 100 µM (inactive) | > 100 µM (inactive) | > 100 µM (inactive) | > 100 µM (inactive) | > 100 µM (inactive) | > 100 µM (inactive) | > 100 µM (inactive) | > 100 µM (inactive) | > 100 µM (inactive) | > 100 µM (inactive) | > 100 µM (inactive) | > 100 µM (inactive)
O=C1CC(c2cccc([N+](=O)[O-])c2)C2(C(=O)NC(=O)NC2=O)C(c2cccc([N+](=O)[O-])c2)C1 (stereo not given) | > 100 µM (inactive) | 78.2 µM (inactive) | 34.5 µM (inactive) | > 100 µM (inactive) | 88.3 µM (inactive) | > 100 µM (inactive) | > 100 µM (inactive) | > 100 µM (inactive) | > 100 µM (inactive) | 31.5 µM (inactive) | 67.6 µM (inactive) | 17.3 µM (inactive) | > 100 µM (inactive) | > 100 µM (inactive) | > 100 µM (inactive) | 13.9 µM (inactive) | > 100 µM (inactive) | > 100 µM (inactive) | 75.9 µM (inactive) | –
O=C(c1ccccc1Cl)n1oc2ccccc2c1=O | 18 µM (inactive) | 13.8 µM (inactive) | > 100 µM (inactive) | > 100 µM (inactive) | > 100 µM (inactive) | > 100 µM (inactive) | > 100 µM (inactive) | > 100 µM (inactive) | > 100 µM (inactive) | 28.1 µM (inactive) | 7.62 µM (inactive) | 51.1 µM (inactive) | > 100 µM (inactive) | > 100 µM (inactive) | 77.1 µM (inactive) | > 100 µM (inactive) | > 100 µM (inactive) | > 100 µM (inactive) | 60.4 µM (inactive) | –
Cn1nc2ccc([N+](=O)[O-])cc2[n+]1[O-] | – | > 100 µM (inactive) | > 100 µM (inactive) | > 100 µM (inactive) | > 100 µM (inactive) | – | > 100 µM (inactive) | > 100 µM (inactive) | > 100 µM (inactive) | – | > 100 µM (inactive) | > 100 µM (inactive) | > 100 µM (inactive) | > 100 µM (inactive) | > 100 µM (inactive) | > 100 µM (inactive) | > 100 µM (inactive) | 90.4 µM (inactive) | > 100 µM (inactive) | > 100 µM (inactive)
CCN1C(=O)C(=C/C=C/c2ccc(OC)cc2)C(=O)N(CC)C1=S | 7.5 µM (inactive) | – | 60.4 µM (inactive) | > 100 µM (inactive) | 40.3 µM (inactive) | – | 95.5 µM (inactive) | 30.7 µM (inactive) | 37.9 µM (inactive) | 33.6 µM (inactive) | 31.3 µM (inactive) | 33.8 µM (inactive) | > 100 µM (inactive) | 19.8 µM (inactive) | 17.6 µM (inactive) | 16.6 µM (inactive) | 13.8 µM (inactive) | 18.2 µM (inactive) | 22.6 µM (inactive) | 53.2 µM (inactive)
CN(Cc1cnc2nc(N)nc(N)c2n1)c1ccc(C(=O)NC(CCS(=O)(=O)O)C(=O)O)cc1 (stereo not given) | < 0.0336 µM (active) | 0.527 µM (active) | 0.681 µM (active) | 0.144 µM (active) | 2.72 µM (inactive) | > 100 µM (inactive) | > 100 µM (inactive) | 0.409 µM (active) | 7.16 µM (inactive) | – | – | 0.268 µM (active) | 0.421 µM (active) | > 100 µM (inactive) | 0.132 µM (active) | 3.46 µM (inactive) | 2.31 µM (inactive) | 0.35 µM (active) | 4.02 µM (inactive) | 0.916 µM (active)
O=C(O)COc1cc(-c2ccccc2F)nc2cc3c(cc12)OCO3 | – | – | > 100 µM (inactive) | > 100 µM (inactive) | – | > 100 µM (inactive) | – | – | – | > 100 µM (inactive) | > 100 µM (inactive) | > 100 µM (inactive) | > 100 µM (inactive) | > 100 µM (inactive) | > 100 µM (inactive) | > 100 µM (inactive) | > 100 µM (inactive) | > 100 µM (inactive) | > 100 µM (inactive) | > 100 µM (inactive)
